One test can be described thus: Affinity for Vancomycin (Exp I).
Turning to `CC(=O)O`, the Affinity came out at 15 M⁻¹.

In the case of `CC(=O)O[C@H](C)C(=O)O`, the Affinity was 40 M⁻¹.

Another test can be described thus: Affinity for Vancomycin (Exp II).
`CC(=O)O` registered an Affinity of 30 M⁻¹.

Take `C[C@@H](O)C(=O)O`: the Affinity amounted to 80 M⁻¹.

For the compound `CC(=O)N[C@H](C)C(=O)O`, the Affinity was determined as 300 M⁻¹.

Compound `CC(=O)NCC(=O)O` registered an Affinity of 80 M⁻¹.

Values taken from ChEMBL document CHEMBL1132471, “Vancomycin binding to low-affinity ligands: delineating a minimum set of interactions necessary for high-affinity binding” (J Med Chem, 1999).
